Measurements reported in publication PMC4580987, “Catalytic site inhibition of insulin-degrading enzyme by a small molecule induces glucose intolerance in mice” (Nature Communications, 2015).
Values after ≈ are worked out from the molar mass of the structure shown. “Also recorded” adds a separate entry of the source.

Assays:
[1] = Stability in mouse plasma; assay type: in vitro ADME; settings: 37 °C, read-out: Plasma stability m (t1/2)
Protocol: (§1) Incubations were performed in duplicate in Eppendorf tubes. The plasma (mouse plasma, rat plasma (mixed gender), human (mixed gender, all lithium heparine, from Sera Laboratories International) or cell culture medium (differenciation medium: DMEM (Life Technologies, Ref 41965), 0.4 % gentamicine, 10 % FCS (Lonza, Ref DE14-801F) or proliferation medium: DMEM (Life Technologies, Ref 41965), 0.4 % gentamicine, 2 % horse serum (Gbco, Ref16050) was pre-incubated 5 min at 37 °C before the addition of test compounds to a final concentration of 10 μM (1% DMSO maximum). At the defined time points, 50 μl from each tube were removed to another tube containing 450 μl of cold CH3CN+ internal standard (1 μM). After centrifugation (10 min at 10,000 r.p.m.), supernatants are analysed. The degradation half-life (t1/2) values were calculated as t1/2=0.693/k where k is the first-order degradation rate constant. The degradation rate constant (k) was estimated by one-phase exponential decay nonlinear regression analysis of the degradation time course data using Xlfit software (version 2.1.2 or higher) from IDBS.Ltd.

human NEP = target: T1, human NEP (Homo sapiens, UniProt P08473); experiment: Neutral endopeptidase (NEP) selectivity assay; assay type: biochemical; settings: means of two experiments minimum, s.d.±10%; read-out: Selectivity IC50 hNEP
T1 construct: purchased R&D Systems
T1 sequence (P08473 whole entry): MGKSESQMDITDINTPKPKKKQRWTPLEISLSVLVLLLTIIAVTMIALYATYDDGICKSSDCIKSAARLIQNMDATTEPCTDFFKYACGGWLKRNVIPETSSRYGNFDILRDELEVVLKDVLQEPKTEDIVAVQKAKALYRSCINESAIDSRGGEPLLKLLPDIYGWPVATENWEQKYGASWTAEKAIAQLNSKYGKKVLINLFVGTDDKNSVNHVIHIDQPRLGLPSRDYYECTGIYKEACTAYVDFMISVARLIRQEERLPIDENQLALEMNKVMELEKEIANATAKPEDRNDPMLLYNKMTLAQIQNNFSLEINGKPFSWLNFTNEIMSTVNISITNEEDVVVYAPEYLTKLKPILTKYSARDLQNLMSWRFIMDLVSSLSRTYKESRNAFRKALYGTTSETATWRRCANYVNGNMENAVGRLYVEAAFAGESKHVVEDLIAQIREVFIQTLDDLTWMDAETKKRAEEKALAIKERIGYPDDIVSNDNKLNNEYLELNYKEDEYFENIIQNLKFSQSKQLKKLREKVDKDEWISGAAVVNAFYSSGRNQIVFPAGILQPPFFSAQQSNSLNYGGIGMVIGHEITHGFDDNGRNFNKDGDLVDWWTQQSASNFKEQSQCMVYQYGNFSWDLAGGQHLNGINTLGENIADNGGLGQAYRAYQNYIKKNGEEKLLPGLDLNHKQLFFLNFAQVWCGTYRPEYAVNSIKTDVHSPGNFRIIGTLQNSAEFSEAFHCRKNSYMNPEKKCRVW
Protocol: (§2) Briefly, human NEP (R&D Systems; 200 ng ml^−1) was incubated 10 min at room temperature with compound in Hepes 50 mM, NaCl 100 mM, pH 7.4 and the enzymatic reaction started by adding the substrate (final concentration 200 μM). […] Briefly, human ACE (R&D Systems) was incubated 10 min at room temperature with compound in Tris 50 mM 1% NaCl pH 7.4 and the enzymatic reaction is started by adding the substrate (final concentration 300 μM). […] In vitro activity was assayed at CEREP.SA as follows.

human ACE = target: T2, human ACE (Homo sapiens, UniProt P12821); experiment: ACE selectivity assay; assay type: biochemical; settings: >10 μM stands for <10% at 10 μM; read-out: Selectivity IC50 hACE
T2 construct: purchased R&D Systems
T2 sequence (P12821 30-1306): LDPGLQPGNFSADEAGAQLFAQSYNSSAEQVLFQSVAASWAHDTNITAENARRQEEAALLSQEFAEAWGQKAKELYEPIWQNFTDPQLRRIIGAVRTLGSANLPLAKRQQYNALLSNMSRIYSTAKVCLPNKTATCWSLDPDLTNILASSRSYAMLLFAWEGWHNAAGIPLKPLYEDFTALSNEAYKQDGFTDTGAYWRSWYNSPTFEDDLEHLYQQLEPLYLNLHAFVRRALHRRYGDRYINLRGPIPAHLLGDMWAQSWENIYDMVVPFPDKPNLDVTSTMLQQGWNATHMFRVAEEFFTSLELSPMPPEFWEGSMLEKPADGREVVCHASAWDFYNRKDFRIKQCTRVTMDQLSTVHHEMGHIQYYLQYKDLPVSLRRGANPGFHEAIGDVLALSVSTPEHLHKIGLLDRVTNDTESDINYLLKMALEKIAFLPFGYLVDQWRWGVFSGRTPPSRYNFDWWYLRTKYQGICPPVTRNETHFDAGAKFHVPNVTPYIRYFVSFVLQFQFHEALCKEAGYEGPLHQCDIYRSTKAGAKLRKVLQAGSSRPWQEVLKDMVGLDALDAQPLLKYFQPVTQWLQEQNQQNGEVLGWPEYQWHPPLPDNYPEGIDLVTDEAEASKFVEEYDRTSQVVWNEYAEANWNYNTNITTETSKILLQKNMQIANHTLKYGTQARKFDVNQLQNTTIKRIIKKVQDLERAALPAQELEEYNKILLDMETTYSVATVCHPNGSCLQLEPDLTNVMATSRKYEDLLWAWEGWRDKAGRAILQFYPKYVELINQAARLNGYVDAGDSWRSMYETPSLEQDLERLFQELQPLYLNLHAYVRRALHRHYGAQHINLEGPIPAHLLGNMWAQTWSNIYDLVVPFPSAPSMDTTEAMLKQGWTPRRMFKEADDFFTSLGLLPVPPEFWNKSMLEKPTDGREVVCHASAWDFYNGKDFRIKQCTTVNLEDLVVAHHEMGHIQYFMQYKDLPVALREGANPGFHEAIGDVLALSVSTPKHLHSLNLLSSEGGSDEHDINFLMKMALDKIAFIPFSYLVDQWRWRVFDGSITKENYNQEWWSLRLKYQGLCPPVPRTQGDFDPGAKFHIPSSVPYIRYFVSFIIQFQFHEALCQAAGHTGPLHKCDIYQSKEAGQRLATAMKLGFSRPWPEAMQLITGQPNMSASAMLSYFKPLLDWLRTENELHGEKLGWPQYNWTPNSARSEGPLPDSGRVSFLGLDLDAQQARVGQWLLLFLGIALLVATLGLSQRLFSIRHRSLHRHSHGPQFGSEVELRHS
Protocol: as §2

Solubility in PBS pH 7.4 = assay type: physicochemical; settings: aqueous buffer, kinetic from dmso stock
Protocol: Ten microlitre of a 10 mM solution in DMSO of the compound are diluted either in 490 μl of PBS pH 7.4 or in organic solvent MeOH in a 700 μl-microtube (in triplicate). The tubes are gently shaken 24 h at room temperature, then centrifuged for 5 min at 4,000 r.p.m. The mixtures are filtered over 0.45 μm filters (Millex-LH Millipore). Twenty microlitre of sample are diluted in 180 μl of MeOH. The solubility is determined by the ratio of mass signal area PBS/ organic solvent. Forty microlitre of a 10 mM solution in DMSO of the compound were diluted in 1.960 ml of a 1/1 octanol /PBS at pH 7.4 mixture. The mixture was gently shaken 2 h at room temperature. Twenty microlitre of each phase was diluted in 480 μl of MeOH and analysed by LC–MS. Each compound is tested in triplicate. Log D was determined as the logarithm of the ratio of concentration of product in octanol and PBS respectively, determined by mass signals.

[2] = Stability in human plasma; assay type: in vitro ADME; settings: both sexes, read-out: Plasma stability h (t1/2)
Protocol: as §1

Stability in rat plasma = assay type: in vitro ADME; settings: both sexes, 37 °C, read-out: Plasma stability r (t1/2)
Protocol: as §1

NOD mice = experiment: Oral glucose tolerance test (OGTT) in NOD mice; assay type: in vivo, mouse; settings: 50 mg kg^−1 ip
Protocol: OGTT and IPGTT were performed on 11 to 16 week-old male or female mice (n=4–7 per experimental group). C57BL/6J mice were purchased from Charles River Laboratories (France), Stock no. 000664. C57BL/6J Ide−/− mice were obtained from Guenette[20] and bred in the animal facility of INSERM U1151. WT C57BL/6J mice of the same genetic background were bred in the same animal facility in parallel. NOD Ide−/− mice were generated by backcrossing C57BL/6J Ide−/− mice with NOD wt mice bred in the animal facility of INSERM U1151 and maintained in this facility together with WT NOD mice. Normoglycemic WT and Ide−/− female NOD mice aged 14 weeks were used for OGTTs. Following a 6 h fasting period, a small tail cut was made, basal blood glucose was determined. […] Fifteen minutes later, blood glucose concentrations were measured before and after (up to 120 min, as shown) oral (2 g kg^−1 or 3 g kg^−1, as shown) or intraperitoneal (1.5 g kg^−1) glucose administration. […] Blood glucose levels were determined using an Accu-Check glucometer (Roche Diagnostics). Areas under the curves (AUC) for OGTT and IPGTT were calculated to evaluate glucose tolerance. Plasma insulin concentrations were measured by ELISA (cat. no. 10-1247-01,Mercodia) in blood samples collected 15 min before and 15 and 90 min relative to oral glucose injection. […]

C57BL/6J mice = experiment: Pyruvate tolerance test; assay type: in vivo, mouse; settings: 50 mg kg^−1 ip, pyruvate 2 g kg^−1
Protocol: Pyruvate tolerance test was performed on 18 h-fasted mice (12 week-old male C57BL/6J mice, n=8 for each group, randomized on blood glucose at the end of the fasting period). […] Fifteen minutes later, blood glucose was measured before and after (up to 120 min) intraperitoneal sodium pyruvate (2 g kg^−1) injection. The AUC of glycaemia versus time were calculated to estimate the total glucose synthesized from pyruvate. Blood glucose levels were determined using an Accu-Check glucometer (Roche Diagnostics). The protocol was approved by the ethical comitee CEEA Nord Pas de Calais (CEEA75).

For O=C(C[C@@H](Cc1ccc2ccccc2c1)n1cc(CNC(=O)c2ccc(F)cc2)nn1)NO [Compound 1], the half-life at 10 μM [1] was 24 h, the IC50 (human NEP) was 2.6 µM and the IC50 (human ACE) was greater than 10 µM. The solubility at 24 h (Solubility in PBS pH 7.4) was 58 µM (≈ 26 µg/mL), the half-life at 10 μM [2] was greater than 24 h and the half-life at 10 μM (Stability in rat plasma) was 13.3 h. For the same molecule, the “glucose tolerance in OGTT, WT NOD” value (NOD mice; 14 week-old female WT NOD mice, 3 g kg^−1 glucose) was “strong impairment of glucose tolerance”, the “insulinaemia in OGTT, WT NOD” value (NOD mice; WT NOD mice) was “hyperinsulinemia” and the “hepatic gluconeogenesis in pyruvate tolerance test” value (C57BL/6J mice) was “No effect on gluconeogenesis; also recorded: not altered”.
